# Experimental data published in paper PMC6321484, “Deep Eutectic Solvent-Based Ultrahigh Pressure Extraction of Baicalin from Scutellaria baicalensis Georgi” (Molecules, 2018).
# Test: Equilibrium solubility of baicalin in different solvents (excess compound, HPLC)
# Format: physicochemical
# Conditions: for Solubility of Baicalin: excess compound stirred at 40 °C for 2 h, HPLC
# Description: Solubility tests were carried out using distilled water, 70% ethanol and DESs with an excess of the tested compound in a capped bottle and stirred at 40 °C for 2 h. The resulting mixture containing undissolved solid compounds were centrifuged. The supernatant was transferred to a 5 mL-microtube, diluted with methanol and vortexed to a homogeneous solution. The concentration of baicalin in the solution was monitored by HPLC. All solubility tests were performed in triplicate.
smiles,measurement,setting,value
O=C(O)[C@H]1O[C@@H](Oc2cc3oc(-c4ccccc4)cc(=O)c3c(O)c2O)[C@H](O)[C@@H](O)[C@@H]1O [baicalin],solubility thermodynamic at 2 h,"40 °C, organic solvent or mixture, thermodynamic from solid, solvent: DES-1, room temperature",22.7 mg/mL
same,Solubility of Baicalin,solvent: 70% Ethanol,1.85 mg/g
same,Solubility of Baicalin,solvent: DES-1 (ChCl-lactic acid 1:1),22.7 mg/g
same,Solubility of Baicalin,solvent: DES-2 (ChCl-glucose 1:1),18.2 mg/g
same,Solubility of Baicalin,solvent: DES-3 (ChCl-glycerol 1:1),12.35 mg/g
same,Solubility of Baicalin,"solvent: DES-4 (ChCl-1,4-butanediol 1:1)",2.25 mg/g
same,Solubility of Baicalin,solvent: DES-5 (ChCl-ethylene glycol 1:1),17.8 mg/g
same,Solubility of Baicalin,solvent: Water,0.18 mg/g
